{"source": "patent US20250355000A1", "about": "“URINARY BRANCHED-CHAIN AMINO ACIDS (UBCAAS) AS INSULIN RESISTANCE BIOMARKERS” (SKILLCELL, priority 2022, published 2025)", "tested_on": "Leucine Dehydrogenase (LeuDH) from B. cereus containing a SUMO-protein domain", "assay_type": "biochemical, Bacillus cereus", "conditions": "for A 600 nm (absorbance values for L-amino acids): 15 minutes at 37° C., 100 mM Tris-HCl pH7.5, MTT reduction", "description": "The IDIr biochemical network uses the enzyme Leucine Dehydrogenase (LeuDH) for oxidizing the branched-chain amino acids (BCAA) and for producing the colorimetric substrate, blue reduced MTT. The absorbance values are proportional to BCAA levels. Detection and measurement branched-chain amino acids in biological fluids (serum and urine) correlate with insulin-resistance indexes. Thus, the substrate specificity (other L-amino acids than BCAA) of Leucine Dehydrogenase (LeuDH) from B. cereus containing a SUMO-protein domain needs to be verified to avoid erroneous results using IDIr test.\nAnalysis of the substrate specificity of the Leucine Dehydrogenase co-expressed with SUMO-protein domain was done using 18 natural proteinogenic L-amino acids in the same conditions used for determining the kinetic parameter of LeuDH with BCAA as substrates.\nAll solutions were prepared in 100 mM Tris-HCl pH7.5 buffer\n• NAD+50 mM • Ascorbate Oxidase 10 U/mL • 1M-PMS 0.2 mM\n• MTT 2 mM • Leucine Dehydrogenase 75 U/mL • L-amino acids • L-Leucine 1 mM • L-Valine 1 mM • L-Isoleucine 1 mM • L-Alanine 1 mM • L-Arginine 1 mM • L-Aspartate 1 mM • L-Glycine 1 mM • L-Glutamate 1 mM • L-Glutamine 1 mM • L-Histidine 1 mM • L-Lysine 1 mM • L-Methionine 1 mM • L-Phenylalanine 1 mM • L-Proline 1 mM • L-Serine 1 mM • L-Threonine 1 mM • L-Tryptophan 1 mM • L-Tyrosine 1 mM\n8 μL of A Solution were pre-incubated with 53 μL of each L-amino acid separately in a well of the microplate for 5 minutes at 37° C. Then, 4 μL of B Solution were added. The kinetics of the reactions were followed during 30 minutes at 37° C. Absorbances were read at 600 nm every 60 seconds.\nBlanks were performed using Tris-HCl 100 mM pH 7.5 buffer containing no L-amino acid during the incubation with A solution. Experiments were performed in duplicates. Results were normalized to the oxidation of L-leucine at 15 minutes.\nOxidation of L-amino acids was followed by colorimetric reduction of Thyazolyl Blue Tetrazolium Bromide. Absorbance at 600 nm is proportional to the concentration of L-amino acids in solution.", "key": {"[1]": {"conditions": "normalized to L-Leucine oxidation at 15 minutes (100%), 37° C., L-amino acid 1 mM"}}, "note": "Read-outs that look alike come from different tables or passages of the source."}
{"smiles": "CC[C@H](C)[C@H](N)C(=O)O", "note": "[ILE, L-Isoleucine]", "values": [{"measurement": "A 600 nm (absorbance values for L-amino acids)", "setting": "L-amino acid 1 mM", "result": 0.601}, {"measurement": "Normalized activity (%)", "setting": "[1]", "result": 102.5, "unit": "%"}]}
{"smiles": "CC(C)[C@H](N)C(=O)O", "note": "[VAL, L-Valine]", "values": [{"measurement": "A 600 nm (absorbance values for L-amino acids)", "setting": "L-amino acid 1 mM", "result": 0.612}, {"measurement": "Normalized activity (%)", "setting": "[1]", "result": 104.3, "unit": "%"}]}
{"smiles": "NC(=O)CC[C@H](N)C(=O)O", "note": "[GLN, L-Glutamine]", "values": [{"measurement": "A 600 nm (absorbance values for L-amino acids)", "setting": "L-amino acid 1 mM", "result": 0.001}, {"measurement": "Normalized activity (%)", "setting": "[1]", "result": 0.2, "unit": "%"}]}
{"smiles": "N[C@@H](CC(=O)O)C(=O)O", "note": "[ASP, L-Aspartate]", "values": [{"measurement": "A 600 nm (absorbance values for L-amino acids)", "setting": "L-amino acid 1 mM", "result": 0.000}, {"measurement": "Normalized activity (%)", "setting": "[1]", "result": 0.0, "unit": "%"}]}
{"smiles": "N[C@@H](Cc1ccccc1)C(=O)O", "note": "[PHE, L-Phenylalanine]", "values": [{"measurement": "A 600 nm (absorbance values for L-amino acids)", "setting": "L-amino acid 1 mM", "result": 0.002}, {"measurement": "Normalized activity (%)", "setting": "[1]", "result": 0.3, "unit": "%"}]}
{"smiles": "N[C@@H](CO)C(=O)O", "note": "[SER, L-Serine]", "values": [{"measurement": "A 600 nm (absorbance values for L-amino acids)", "setting": "L-amino acid 1 mM", "result": 0.001}, {"measurement": "Normalized activity (%)", "setting": "[1]", "result": 0.2, "unit": "%"}]}
{"smiles": "N[C@@H](Cc1c[nH]c2ccccc12)C(=O)O", "note": "[TRP, L-Tryptophan]", "values": [{"measurement": "A 600 nm (absorbance values for L-amino acids)", "setting": "L-amino acid 1 mM", "result": 0.003}, {"measurement": "Normalized activity (%)", "setting": "[1]", "result": 0.4, "unit": "%"}]}
{"smiles": "N[C@@H](Cc1ccc(O)cc1)C(=O)O", "note": "[TYR, L-Tyrosine]", "values": [{"measurement": "A 600 nm (absorbance values for L-amino acids)", "setting": "L-amino acid 1 mM", "result": 0.002}, {"measurement": "Normalized activity (%)", "setting": "[1]", "result": 0.3, "unit": "%"}]}
{"smiles": "O=C(O)[C@@H]1CCCN1", "note": "[PRO, L-Proline]", "values": [{"measurement": "Normalized activity (%)", "result": 1.3, "unit": "%"}, {"measurement": "A 600 nm (absorbance values for L-amino acids)", "setting": "L-amino acid 1 mM", "result": 0.008}]}
{"smiles": "N[C@@H](CCC(=O)O)C(=O)O", "note": "[GLU, L-Glutamate]", "values": [{"measurement": "A 600 nm (absorbance values for L-amino acids)", "setting": "L-amino acid 1 mM", "result": 0.002}, {"measurement": "Normalized activity (%)", "setting": "[1]", "result": 0.3, "unit": "%"}]}
{"smiles": "C[C@@H](O)[C@H](N)C(=O)O", "note": "[THR, L-Threonine]", "values": [{"measurement": "A 600 nm (absorbance values for L-amino acids)", "setting": "L-amino acid 1 mM", "result": 0.002}, {"measurement": "Normalized activity (%)", "setting": "[1]", "result": 0.3, "unit": "%"}]}
{"smiles": "C[C@H](N)C(=O)O", "note": "[ALA, L-Alanine]", "values": [{"measurement": "A 600 nm (absorbance values for L-amino acids)", "setting": "L-amino acid 1 mM", "result": 0.002}, {"measurement": "Normalized activity (%)", "setting": "[1]", "result": 0.3, "unit": "%"}]}
{"smiles": "N=C(N)NCCC[C@H](N)C(=O)O", "note": "[ARG, L-Arginine]", "values": [{"measurement": "A 600 nm (absorbance values for L-amino acids)", "setting": "L-amino acid 1 mM", "result": 0.003}, {"measurement": "Normalized activity (%)", "setting": "[1]", "result": 0.4, "unit": "%"}]}
{"smiles": "N[C@@H](Cc1c[nH]cn1)C(=O)O", "note": "[HIS, L-Histidine]", "values": [{"measurement": "A 600 nm (absorbance values for L-amino acids)", "setting": "L-amino acid 1 mM", "result": 0.001}, {"measurement": "Normalized activity (%)", "setting": "[1]", "result": 0.2, "unit": "%"}]}
{"smiles": "CC(C)C[C@H](N)C(=O)O", "note": "[LEU, L-Leucine]", "values": [{"measurement": "A 600 nm (absorbance values for L-amino acids)", "setting": "L-amino acid 1 mM", "result": 0.587}, {"measurement": "Normalized activity (%)", "setting": "[1]", "result": 100.0, "unit": "%"}]}
{"smiles": "NCCCC[C@H](N)C(=O)O", "note": "[LYS, L-Lysine]", "values": [{"measurement": "A 600 nm (absorbance values for L-amino acids)", "setting": "L-amino acid 1 mM", "result": 0.001}, {"measurement": "Normalized activity (%)", "setting": "[1]", "result": 0.1, "unit": "%"}]}
{"smiles": "NCC(=O)O", "note": "[GLY, L-Glycine]", "values": [{"measurement": "Normalized activity (%)", "result": 0.1, "unit": "%"}, {"measurement": "A 600 nm (absorbance values for L-amino acids)", "setting": "L-amino acid 1 mM", "result": 0.001}]}
{"smiles": "CSCC[C@H](N)C(=O)O", "note": "[MET, L-Methionine]", "values": [{"measurement": "Normalized activity (%)", "result": 3.2, "unit": "%"}, {"measurement": "A 600 nm (absorbance values for L-amino acids)", "setting": "L-amino acid 1 mM", "result": 0.019}]}
